Reference: patent US10934224B2, “Production of arginine-rich proteins from wastewater and use as a fertilizer” (Genebiologics, LLC, priority 2016, dated 2021)

Experiments:
[1] = tested on: Arabidopsis thaliana seeds; test: Arabidopsis thaliana seed germination and growth in liquid culture; format: in vivo; conditions: for root growth: 100 μg/ml in water; for optimal level (germination): day 4; for optimal level (biomass): day 5
Description: Approximately 300 Arabidopsis thaliana seeds were soaked in 75% ethanol for one minute, then soaked in 10% bleach, 0.02% TRITON×100 for five minutes, then washed five times with sterile water. The seeds were then resuspended in about 4 ml water, and dispensed into 30 Eppendorf tubes at approximately 100 microliters per tube, for a total of 8-9 seeds per tube. Test conditions included either water, 1× or 0.1×MS medium (Caisson; […] Root length and stem lengths are in mm.

[2] = Inhibition of cobalt binding to cation exchange resin; conditions: for effect on binding of cobalt to CM sepharose: 2.5 μM CoCl2, 0.95 μM inhibitor
Description: After sitting for 1 minute the sepharose was washed 2× with water to remove excess cobalt and inhibitor. The cobalt was then stripped from the column material with 50 μl of 50 mM EDTA and this cobalt-containing wash was made basic with 50 μl of 50 mM NaOH. The cobalt-containing wash was then monitored on a DU800 spectroscope at 463 nm wavelength for the data of Table 2 (FIG. 7), and from 350 nm to 650 nm for FIG. 5. The data of FIG. 5 and FIG. 7 were from separate experiments acquired on two different days.

[3] = cited from earlier work
E. coli strain NK5992 = test: Growth of E. coli arginine auxotroph on arginine or polyarginine; format: cell-based
Description: Cells were grown in triplicate at 37° C. on a 96-well plate with measurement at 600 nm using a Tecan InfiniteM200 pro.

Row | Molecule | root growth [1] | optimal level (germination) [1] | effect on percent germination ([1]; day 4, added to 0.1×MS medium) | optimal level (biomass) [1] | effect on binding of cobalt to CM sepharose [2] | effect on binding of cobalt to CM sepharose ([2]; listed as Arginine) | competition with cobalt for binding to CM sepharose ([2]; 2.6-fold excess cobalt per arginine monomer, anionic sites limiting) | pKa of guanidinium group [3] | growth of arginine auxotroph on the substance (E. coli strain NK5992; M9 medium, 37° C., 600 nm) | growth relative to arginine monomer (E. coli strain NK5992; on a per-monomer equivalency) | growth ([1]; 0.1× MS, 10 μg/ml, isolated case)
1 | N=C(N)NCCC[C@H](N)C(=O)O [arginine] | not found | 100 µg/mL | same relative effect | 100 µg/mL | not by the presence of arginine | enhanced the binding of cobalt | did not compete | approximately 12.4 | – | – | –
2 | polyarginine | large amount of root growth | 100 µg/mL | – | 100 µg/mL | inhibited | – | – | – | does grow on polyarginine | grows more poorly | increased growth
